Test results reported in ChEMBL document CHEMBL1201862, “PubChem BioAssay data set” (2004).
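Briefly, cells in 96-well plates were exposed to five compound concentrations for 48 h, and endpoints were estimated by linear interpolation. Abbreviation: GI50, concentration required for 50% inhibition of growth.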 Activity calls are given as the source filed them. No stated cut-off is given here; in the data, active = GI50 up to about 1.1 µM and inactive = higher.

Assays:
Assay in all cases: inhibition of tumour cell growth, NCI panel, 48 h
[1] = system: MDA-N
[2] = system: MCF7
[3] = system: EKVX
[4] = system: SF-295
[5] = system: OVCAR-8
[6] = system: UACC-62
[7] = system: SF-268
[8] = system: A549
[9] = system: OVCAR-4
[10] = system: Malme-3M
[11] = system: ACHN
[12] = system: M14
[13] = system: SNB-19
[14] = system: NCI-H226
[15] = system: T47D
[16] = system: BT-549
[17] = system: CAKI-1
[18] = system: SW-620
[19] = system: K562

Measured: GI50

Cc1cnc2c(c1)C(=O)N(c1ccc(Br)cc1)S2(=O)=O
inactive: [1] > 100 µM | [2] > 100 µM | [3] 35.6 µM | [4] > 100 µM | [5] > 100 µM | [6] > 100 µM | [7] 78.5 µM | [8] > 100 µM | [9] 44.4 µM | [10] 35.6 µM | [11] > 100 µM | [12] > 100 µM | [13] > 100 µM | [14] 78 µM | [15] > 100 µM | [16] > 100 µM | [17] > 100 µM | [18] > 100 µM

COc1cc(/C=N/N=C2NCCN2)ccc1O
inactive: [19] > 100 µM | [1] > 100 µM | [2] > 100 µM | [3] > 100 µM | [4] 68.5 µM | [5] > 100 µM | [6] > 100 µM | [7] > 100 µM | [8] > 100 µM | [9] > 100 µM | [10] > 100 µM | [11] > 100 µM | [12] > 100 µM | [13] > 100 µM | [14] > 100 µM | [15] > 100 µM | [16] > 100 µM | [18] > 100 µM

O=C(NC(=S)Nc1ccc(Br)cc1)c1ccc2c(c1)Sc1ccccc1S2
inactive: [19] 9.04 µM | [1] 28.9 µM | [2] 32.7 µM | [4] 20.4 µM | [5] 17.3 µM | [6] 27.5 µM | [7] 21.9 µM | [8] 21 µM | [9] 19.2 µM | [10] 24.4 µM | [11] 18.2 µM | [12] 12.4 µM | [13] 25.2 µM | [14] 23.4 µM | [15] 16.9 µM | [16] 39.1 µM | [17] 20.1 µM | [18] 31.6 µM

CC1(C)[C@H]2CC[C@](C)(C2)[C@]1(S)Cc1ccccn1
inactive: [19] 26.3 µM | [1] 39.3 µM | [2] 32.5 µM | [3] 46.5 µM | [4] 26.4 µM | [5] 17.5 µM | [6] 67.8 µM | [7] 39.7 µM | [8] 42.7 µM | [10] 46.1 µM | [11] 54.2 µM | [12] 84.1 µM | [13] > 100 µM | [15] 24.5 µM | [16] 90.4 µM | [17] 57.1 µM | [18] 36.3 µM

COc1cc(CNc2nc3ccccc3nc2-c2cccs2)cc(OC)c1OC
inactive: [19] 17.6 µM | [1] 16.3 µM | [2] 21.7 µM | [3] 29.6 µM | [4] 33.5 µM | [5] 14.3 µM | [6] 13.7 µM | [7] > 100 µM | [8] 18.7 µM | [9] 2.84 µM | [10] 17.9 µM | [11] 13.9 µM | [14] 29.5 µM | [15] 7.48 µM | [16] 3.1 µM | [17] 11.2 µM | [18] 36.7 µM

C=CCc1cccc2cc(C(=O)NC3CCCCC3)c(=N)oc12
inactive: [19] > 100 µM | [1] 19.1 µM | [2] 26.2 µM | [3] > 100 µM | [5] 32.6 µM | [6] 16.3 µM | [7] 17.7 µM | [8] 32.2 µM | [9] 20.9 µM | [10] > 100 µM | [11] 11.1 µM | [12] 18 µM | [13] 21.4 µM | [14] 20.1 µM | [15] 11.4 µM | [16] 33.7 µM | [17] 16.8 µM | [18] 33.4 µM

Cc1cc(C#N)c(Nc2ccccc2[N+](=O)[O-])s1
inactive: [19] 45.2 µM | [1] 14.9 µM | [2] 32.5 µM | [3] 22.3 µM | [4] 24.8 µM | [5] 31 µM | [6] 54.2 µM | [7] 51.5 µM | [8] 85.3 µM | [9] 89.3 µM | [11] 58.7 µM | [12] 32.8 µM | [13] 41 µM | [14] 51.1 µM | [15] 36.6 µM | [16] 19.4 µM | [17] 77.8 µM | [18] 25.5 µM

O=C1NC(=O)C(C(c2ccc([N+](=O)[O-])cc2)C2C(=O)NC(=O)NC2=O)C(=O)N1
inactive: [19] > 100 µM | [1] > 100 µM | [2] > 100 µM | [4] > 100 µM | [5] > 100 µM | [6] > 100 µM | [7] 22.5 µM | [8] > 100 µM | [9] > 100 µM | [10] 55.8 µM | [11] > 100 µM | [12] > 100 µM | [13] > 100 µM | [14] > 100 µM | [15] > 100 µM | [16] > 100 µM | [17] > 100 µM | [18] > 100 µM

Nc1ccc(C2SCC(=O)N2NS(=O)(=O)c2cccc(C(=O)O)c2)cc1 (configuration not stated)
inactive: [19] > 100 µM | [1] > 100 µM | [2] > 100 µM | [3] > 100 µM | [4] > 100 µM | [5] > 100 µM | [6] > 100 µM | [7] > 100 µM | [8] > 100 µM | [10] 18.1 µM | [11] > 100 µM | [12] > 100 µM | [13] > 100 µM | [14] > 100 µM | [15] 58.3 µM | [16] > 100 µM | [17] > 100 µM | [18] > 100 µM

COc1ccc2c(c1)CCC1=C/C(=N\NC(N)=O)CCC12C (configuration not stated)
inactive: [19] > 10 µM | [1] > 10 µM | [2] > 10 µM | [4] > 10 µM | [5] > 10 µM | [6] 6.41 µM | [7] > 10 µM | [8] > 10 µM | [9] > 10 µM | [10] > 10 µM | [11] > 10 µM | [12] > 10 µM | [13] > 10 µM | [15] > 10 µM | [16] > 10 µM | [17] > 10 µM | [18] > 10 µM

CC1=C(C)C(=O)C(C2=CC(=O)C=CC2=O)=C(C2=CC(=O)C=CC2=O)C1=O
inactive: [1] 26.9 µM | [2] 26.4 µM | [3] > 54.1 µM | [4] > 96.2 µM | [5] 36.6 µM | [6] 39.6 µM | [7] > 74.6 µM | [8] 98.9 µM | [9] 20.6 µM | [10] 66.1 µM | [11] 59.4 µM | [12] > 76.9 µM | [13] > 100 µM | [14] > 100 µM | [15] 26.4 µM | [16] 86.9 µM | [17] 25.2 µM | [18] 28.4 µM

NC(Cc1ccc(S(=O)(=O)O)cc1)C(=O)NC(Cc1ccc(S(=O)(=O)O)cc1)C(=O)NC(Cc1ccc(S(=O)(=O)O)cc1)C(=O)O (configuration not stated)
inactive: [19] > 100 µM | [1] > 100 µM | [2] > 100 µM | [3] > 100 µM | [4] > 100 µM | [5] > 100 µM | [6] > 100 µM | [7] > 100 µM | [8] > 100 µM | [9] > 100 µM | [10] > 100 µM | [11] > 100 µM | [12] > 100 µM | [14] > 100 µM | [15] > 100 µM | [16] > 100 µM | [17] > 100 µM | [18] > 100 µM

CN(C)/C=[N+]1/[C@@H](Cc2ccccc2)C(=O)O[B-]1(F)c1ccccc1 (some centres not stated)
inactive: [19] > 100 µM | [1] > 100 µM | [2] > 100 µM | [3] > 100 µM | [4] > 100 µM | [5] > 100 µM | [6] > 100 µM | [7] > 100 µM | [8] > 100 µM | [9] > 100 µM | [10] > 100 µM | [11] > 100 µM | [12] > 100 µM | [13] > 100 µM | [14] > 100 µM | [15] > 100 µM | [16] > 100 µM | [18] > 100 µM

CCN(CC)CCNC(=O)c1ccc(I)cc1
inactive: [19] > 100 µM | [1] > 100 µM | [2] > 100 µM | [3] > 100 µM | [4] > 100 µM | [5] > 100 µM | [7] > 100 µM | [8] > 100 µM | [9] > 100 µM | [10] > 100 µM | [11] > 100 µM | [12] > 100 µM | [13] > 100 µM | [14] > 100 µM | [15] 64.4 µM | [16] > 100 µM | [17] 60.4 µM | [18] > 100 µM

COC1=CC(=O)c2c(CCNC(=O)OCc3ccccc3)n[nH]c2C1=O
inactive: [19] 16 µM | [1] 2.24 µM | [2] 8.07 µM | [3] 17.8 µM | [4] 20.6 µM | [5] 23.1 µM | [6] 5.79 µM | [8] 19.6 µM | [10] 1.76 µM | [11] 14.2 µM | [12] 12.6 µM | [13] 14.7 µM | [15] 2.3 µM | [16] 17.5 µM | [18] 19.5 µM

O=c1cccc2n1CC1CNC[C@H]2C1 [CYTISINICLINE]
inactive: [19] > 100 µM | [1] > 100 µM | [2] > 100 µM | [3] > 100 µM | [4] > 100 µM | [5] > 100 µM | [6] > 100 µM | [7] > 100 µM | [8] > 100 µM | [9] > 100 µM | [10] > 100 µM | [11] > 100 µM | [12] > 100 µM | [13] > 100 µM | [15] > 100 µM | [16] > 100 µM | [17] > 100 µM | [18] > 100 µM
